Experiments:
Assay type in all cases: cell-based, human
[1] = tested on: BE1 stem cells; assay: Small molecule screen and dose-response in 384-well plates, BE1 stem cells
[2] = tested on: normal esophageal stem cells; assay: Small molecule screen and dose-response in 384-well plates, normal esophageal stem cells
[3] = tested on: BE1 and normal esophageal stem cells; assay: Co-cultures of BE1 and normal esophageal stem cells; settings: in combination with ponatinib
Description: FIGS. 6a-g. Drug development for precursor lesions. FIG. 6a. […] FIG. 6b. […] FIG. 6c. Dose-response curves of candidate drug (CEP-18770). FIG. 6d. […] FIG. 6e. […] FIG. 6f. […] FIG. 6g.
Small molecule screens against precursor stem cells. Given that Barrett's esophagus is an essential precursor for EAC, the inventors adapted BE1 stem cells to high-throughput screening platforms to identify proof-of-concept leads for preemptive therapies.

Cc1ccc(C(=O)Nc2ccc(CN3CCN(C)CC3)c(C(F)(F)F)c2)cc1C#Cc1cnc2cccnn12 [ponatinib, 3-[2-(Imidazo[1,2-b]pyridazin-3-yl)ethynyl]-4-methyl-N-[4-(4-methylpiperazin-1-ylmethyl)-3-(trifluoromethyl)phenyl]benzamide]
Growth of BE1 stem cells ([1]; single agent): marginally inhibiting the growth | Growth of normal esophageal stem cells ([2]; single agent, screens of stem cells from eight cases): best of these esophageal stem cell “promoters”

CN[C@@H](C)C(=O)N[C@H]1CCCC[C@H]2CC[C@@H](C(=O)N[C@@H](c3ccccc3)c3cn(CCCCc4ccc(CCCCn5cc([C@@H](NC(=O)[C@@H]6CC[C@@H]7CCCC[C@H](NC(=O)[C@H](C)NC)C(=O)N76)c6ccccc6)nn5)cc4)nn3)N2C1=O [SM-164]
IC50 ([1]; in combination with ponatinib, read-out: IC50 for eliminating BE1 stem cells): < 1 nM | Impact on normal esophageal stem cells ([2]; in combination with ponatinib): minimal impact | Effect on normal esophageal stem cells in co-culture ([3]; co-culture with BE1 stem cells): promotes the expansion | Effect on BE1 cells in co-culture ([3]; co-culture with normal esophageal stem cells): selectively eliminates the BE1 cells
